Assay results from patent US7332489B2, “Methods and compositions of novel triazine compounds” (Reddy US Therapeutics, Inc., priority 2003, dated 2008).
Read-outs that look alike come from different tables or passages of the source.

System: TNF-α induced IL-6
Test: TNF-α-induced IL-6 production determined by IL-6 ELISA
Format: cell-based
Conditions: for activity at 10 µM: class = % of control IL6 production
Experimental: Human aortic endothelial cells (HAEC, Clonetics) were cultured according to manufacturer in growth medium (Clonetics): basal medium containing human epidermal growth factor, hydrocortisone, vascular endothelial growth factor, heparin binding growth factor-B, long R3-insulin-like growth factor-1, ascorbic acid, gentamicin/amphotericin and 5% FBS. These cell were allowed to reach at least 90% confluency before subjected to experimental treatments. […] Tumor necrosis factor α was from R&D Systems.
All treatments, compound-added and controls were carried out in serum free media containing 0.2% albumin. Media from all conditions were collected and used for IL-6 ELISA.
IL-6 ELISA was carried out using human IL-6 DuoSet ELISA development kit as described by manufacturer (R&D Systems). Mouse anti-human Il-6 was used as the capture antibody (2 ug/ml) and biotinylated goat anti-human IL-6 (200 ng/ml) was used as the detection antibody. Culture media were incubated with capture antibody (in 96 well) for 2 h at room temperature. Wells were washed three times with wash buffer (0.05% tween-20 in phosphate buffered saline (PBS) pH 7.4) followed by incubation with detection antibody for 2 h at room temperature. Following three washes wells were incubated with Streptavidin-HRP for 20 min. Color development was read at 450 nm in a Microplate reader.

[1] = Homo sapiens, 24 h, Table 5, first part, read-out: Inhibition of TNF-induced IL6 production
[2] = Homo sapiens, 24 h, Table 5, second part, column 1, read-out: Inhibition of TNF-induced IL6, production

Compound | activity at 10 µM [1] [%] | activity at 10 µM [2] [%] | also measured
CCN1CCCC1CNc1nc(Nc2ccc(OC)c(F)c2)nc(N2CCCC2)n1 (stereo not drawn) [Compound 57, N^2-[(1-ethyl-2-pyrrolidinyl)methyl]-N^4-(3-fluoro-4-methoxyphenyl)-6-(1-pyrrolidinyl)-1,3,5-triazine-2,4-diamine] | 0 to 25 | 25 to 50 | 
COc1ccc(Nc2nc(NC3CCCCCC3)nc(OCC3CCCN3C)n2)cc1Cl (stereo not drawn) |  |  | Inflammation Data, cell death at 10 uM (10 uM): total cell death; Inflammation Data, inhibition at 10 uM (10 uM): complete inhibition
COc1ccc(Nc2nc(NC3CCCCCC3)nc(OC3CCCNC3)n2)cc1Cl (stereo not drawn) |  |  | Inflammation Data, cell death at 10 uM (10 uM): 20%; inhibition at 10 µM (Homo sapiens, 10 uM, read-out: Inflammation Data, inhibition at 10 uM): 60%
CCN1CCCC1CNc1nc(Nc2ccc(F)cc2)nc(NC2CCCCCC2)n1 (stereo not drawn) [Compound 10, N^2-cycloheptyl-N^4-[(1-ethyl-2-pyrrolidinyl)methyl]-N^6-(4-fluorophenyl)-1,3,5-triazine-2,4,6-triamine] |  | 0 to 25 | 
CCOC(=O)N1CCN(c2nc(NCC3CCCN3CC)nc(Nc3ccc(OC)c(F)c3)n2)CC1 (stereo not drawn) [Compound 64, Ethyl 4-{4-{[(1-ethyl-2-pyrrolidinyl)methyl]amino}-N^6-[(3-fluoro-4-methoxyphenyl)amino]-1,3,5-triazin-2-yl}-1-piperazinecarboxylate] | 25 to 50 |  | 
CCN1CCCC1CNc1nc(NC2CCCCCC2)nc(N(C)c2ccc(OC)cc2)n1 (stereo not drawn) [Compound 42, N^2-cycloheptyl-N^4-[(1-ethyl-2-pyrrolidinyl)methyl]-N^6-(4-methoxyphenyl)-N^6-methyl-1,3,5-triazine-2,4,6-triamine] | 0 to 25 | 0 to 25 | 
COc1ccc(Nc2nc(NCc3ccccc3)nc(NC3CCCCCC3)n2)cc1F [Compound 78, N^2-benzyl-N^4-cycloheptyl-N^6-(3-fluoro-4-methoxyphenyl)-1,3,5-triazine-2,4,6-triamine] | 25 to 50 |  | 
CCN1CCCC1CNc1nc(NCCN(C)C)nc(Nc2ccc(OC)c(F)c2)n1 (stereo not drawn) [Compound 68, N^2-[2-(dimethylamino)ethyl]-N^4-[(1-ethyl-2-pyrrolidinyl)methyl]-N^6-(3-fluoro-4-methoxyphenyl)-1,3,5-triazine-2,4,6-triamine] | 0 to 25 | 25 to 50 | 
COc1ccc(Nc2nc(NCc3ccco3)nc(NC3CCCCCC3)n2)cc1F [Compound 91, N^2-cycloheptyl-N^4-(3-fluoro-4-methoxyphenyl)-N^6-(2-furanylmethyl)-1,3,5-triazine-2,4,6-triamine] | 25 to 50 |  | 
COc1ccc(Nc2nc(NC3CCCCCC3)nc(OC3CCNCC3)n2)cc1Cl |  |  | Inflammation Data, cell death at 10 uM (10 uM): 20%
COc1ccc(Nc2nc(NC3CCCCCC3)nc(NC3CCC(C)CC3)n2)cc1F (stereo not drawn) [Compound 85, N^2-cycloheptyl-N^4-(3-fluoro-4-methoxyphenyl)-N^6-(4-methylcyclohexyl)-1,3,5-triazine-2,4,6-triamine] | 25 to 50 |  | 
CN(c1nc(Nc2ccc(O)cc2)nc(NC2CCCCCC2)n1)C1CCNCC1 |  |  | inhibition at 5 µM (Homo sapiens, read-out: Inflammation Data, inhibition at 5 uM): 50%; Inflammation Data, cell death at 5 uM (human, 24 h, 5 µM): 20%; Inflammation Data, cell death at 10 uM (human, 24 h, 10 µM): total cell death
COc1ccc(Nc2nc(NC3CCCCCC3)nc(N3CCCC4CCCCC43)n2)cc1F (stereo not drawn) [Compound 84, N^2-cycloheptyl-N^4-(3-fluoro-4-methoxyphenyl)-6-octahydro-1(2H)-quinolinyl-1,3,5-triazine-2,4-diamine] | 25 to 50 |  | 
COc1ccc(Nc2nc(NC3CCCCCC3)nc(N3CCN(CC(=O)N4CCCC4)CC3)n2)cc1F [Compound 94, N^2-cycloheptyl-N^4-(3-fluoro-4-methoxyphenyl)-6-{4-[2-oxo-(1-pyrrolidinyl)ethyl]-1-piperazinyl}-1,3,5-triazine-2,4-diamine] | 25 to 50 | 0 to 25 | 
CCN1CCCC1CNc1nc(NC2CCCCCC2)nc(N(C)c2ccc(F)cc2F)n1 (stereo not drawn) [Compound 43, N^2-cycloheptyl-N^4-(2,4-difluorophenyl)-N^6-[(1-ethyl-2-pyrrolidinyl)methyl]-N^4-methyl-1,3,5-triazine-2,4,6-triamine] |  | 0 to 25 | 
COc1ccc(Nc2nc(NC3CCCCCC3)nc(N3CCCC3)n2)cc1F [Compound 82, N^2-cycloheptyl-N^4-(3-fluoro-4-methoxyphenyl)-6-(1-pyrrolidinyl)-1,3,5-triazine-2,4-diamine] | 25 to 50 |  | 
COc1ccc(Nc2nc(NC3CCCCCC3)nc(NC3CCNCC3)n2)cc1 |  |  | Inflammation Data, cell death at 5 uM (5 uM): 20%; Inflammation Data, cell death at 10 uM (10 uM): > 50%
COc1ccc(Nc2nc(NCCCn3ccnc3)nc(NC3CCCCCC3)n2)cc1F [Compound 100, N^2-cycloheptyl-N^4-(3-fluoro-4-methoxyphenyl)-N^6-[3-(1H-imidazol-1-yl)propyl]-1,3,5-triazine-2,4,6-triamine] |  | 0 to 25 | 
CCN1CCCC1CNc1nc(NC2CCCCCC2)nc(N(C)c2ccccc2C(F)(F)F)n1 (stereo not drawn) [Compound 46, N^2-cycloheptyl-N^4-[(1-ethyl-2-pyrrolidinyl)methyl]-N^6-methyl-N^6-[2-(trifluoromethyl)phenyl]-1,3,5-triazine-2,4,6-triamine] |  | 0 to 25 | 
CCN1CCCC1CNc1nc(Nc2ccc(OC)c(F)c2)nc(N2CCN(Cc3ccc4c(c3)OCO4)CC2)n1 (stereo not drawn) [Compound 72, N^6-[4-(1,3-benzodioxol-5-ylmethyl)-1-piperazinyl]-N^2-[(1-ethyl-2-pyrrolidinyl)methyl]-N^4-(3-fluoro-4-methoxyphenyl)-1,3,5-triazine-2,4-diamine] | 0 to 25 | 25 to 50 | 
COc1ccc(Nc2nc(NCCN3CCCCC3)nc(NC3CCCCCC3)n2)cc1F [Compound 96, N^2-cycloheptyl-N^4-(3-fluoro-4-methoxyphenyl)-N^6-[2-(1-piperidinyl)ethyl]-1,3,5-triazine-2,4,6-triamine] | 0 to 25 |  | 
CCN(CC)c1ccc(Nc2nc(NCC3CCCN3CC)nc(NC3CCCCCC3)n2)cc1Cl (stereo not drawn) [Compound 26, N^2-[3-chloro-4-(diethylamino)phenyl]-N^4-cycloheptyl-N^6-[(1-ethyl-2-pyrrolidinyl)methyl]-1,3,5-triazine-2,4,6-triamine] | 0 to 25 |  | cells floating (HAEC, 10 uM compound, seen in the TNF IL6 test): > 50%
CCN1CCCC1CNc1nc(NCC2CCCN2CC)nc(Nc2ccc(OC)c(F)c2)n1 (stereo not drawn) [Compound 70, N^2,N^4-bis[(1-ethyl-2-pyrrolidinyl)methyl]-N^6-(3-fluoro-4-methoxyphenyl)-1,3,5-triazine-2,4,6-triamine] | 0 to 25 | 25 to 50 | 
COc1ccc(Nc2nc(NC3CCCCCC3)nc(N3CCOCC3)n2)cc1F [Compound 175, N-Cycloheptyl-N′-(3-fluoro-4-methoxy-phenyl)-6-morpholin-4-yl-[1,3,5]triazine-2,4-di-amine] |  |  | inhibition at 10 µM (Homo sapiens, 24 h, Table 7, first part, read-out: Inhibition of TNF-induced IL6 production): 85 to 100%
CCN1CCCC1CNc1nc(Nc2ccc(OC)c(F)c2)nc(N2CCN(c3ccccn3)CC2)n1 (stereo not drawn) [Compound 73, N^2-[(1-ethyl-2-pyrrolidinyl)methyl]-N^4-(3-fluoro-4-methoxyphenyl)-N^6-[4-(2-pyridinyl)-1-piperazinyl]-1,3,5-triazine-2,4-diamine] | 0 to 25 | 0 to 25 | 
CCN1CCCC1CNc1nc(NCCCN2CCCC2=O)nc(Nc2ccc(OC)c(F)c2)n1 (stereo not drawn) [Compound 74, 1-[3-({4-{[(1-ethyl-2-pyrrolidinyl)methyl]amino}-6-[(3-fluoro-4-methoxyphenyl)amino]-1,3,5-triazin-2-yl}amino)propyl]-2-pyrrolidinone] |  | 25 to 50 | 
